Ends that are not written are not given here.
Columns and labels:
[1] = test system: X. fastidiosa subsp. fastidiosa IVIA 5387.2; details: 50 µM
horse erythrocytes = details: red cells of horse, 50 µM
E. coli 0111:B4 LPS = format: biochemical, Escherichia coli
tobacco leaves = details: 150 µM; after 48 h

NIKISGKWKAQKRFLK-NH2 [BPI(84-99), NIKISGKWKAQKRFLK-NH2, reference compound]
Bactericidal activity Level [1]: Low (key: Very High: very high bactericidal activity (>2.5 log); High: high bactericidal activity (between 2.0 and 2.5 log); Moderate: a moderate activity (between 1.5 and 2.0 log); Low: low active (<1.5 log)) | Bactericidal activity Reduction in viability (Log N0/N) [1]: 0,84 Log N0/N | Hemolytic activity (%) (horse erythrocytes): 7% | LPS neutralization Ratio (treatment/NTC) (E. coli 0111:B4 LPS): 0,29 | Phytotoxicity: diameter of the lesion (tobacco leaves): 1 mm

RVQGRWKVRASFFK-NH2 [LBP-14, RVQGRWKVRASFFK-NH2, reference compound]
Bactericidal activity Level [1]: Low (key: Very High: very high bactericidal activity (>2.5 log); High: high bactericidal activity (between 2.0 and 2.5 log); Moderate: a moderate activity (between 1.5 and 2.0 log); Low: low active (<1.5 log)) | Bactericidal activity Reduction in viability (Log N0/N) [1]: 0,51 Log N0/N | Hemolytic activity (%) (horse erythrocytes): 7% | LPS neutralization Ratio (treatment/NTC) (E. coli 0111:B4 LPS): 0,23 | Phytotoxicity: diameter of the lesion (tobacco leaves): 1 mm

YVKLWRMIKFIR-NH2 [YW12D, YVKLWRMIKFIR-NH2, reference compound]
Bactericidal activity Level [1]: Low (key: Very High: very high bactericidal activity (>2.5 log); High: high bactericidal activity (between 2.0 and 2.5 log); Moderate: a moderate activity (between 1.5 and 2.0 log); Low: low active (<1.5 log)) | Bactericidal activity Reduction in viability (Log N0/N) [1]: 0,59 Log N0/N | Hemolytic activity (%) (horse erythrocytes): 12% | LPS neutralization Ratio (treatment/NTC) (E. coli 0111:B4 LPS): 0,21 | Phytotoxicity: diameter of the lesion (tobacco leaves): 1 mm
